Reference: patent publication US11957699B2, “Composition comprising punicalagin for inhibiting PAR2 activity” (INDUSTRY-ACADEMIC COOPERATION FOUNDATION, YONSEI UNIVERSITY, priority 2018, dated 2024)

Legend:
PAR2 [1] = biological target: T1, PAR2 (Homo sapiens, UniProt P55085); assay: Cytokine secretion by PAR2-AP in primary cultured human conjunctival epithelial cells (ELISA); type: cell-based; set-up: endogenous in cells; settings: 10 μM, 100 μM PAR2-AP, 24 hours
T1 sequence (P55085 26-397): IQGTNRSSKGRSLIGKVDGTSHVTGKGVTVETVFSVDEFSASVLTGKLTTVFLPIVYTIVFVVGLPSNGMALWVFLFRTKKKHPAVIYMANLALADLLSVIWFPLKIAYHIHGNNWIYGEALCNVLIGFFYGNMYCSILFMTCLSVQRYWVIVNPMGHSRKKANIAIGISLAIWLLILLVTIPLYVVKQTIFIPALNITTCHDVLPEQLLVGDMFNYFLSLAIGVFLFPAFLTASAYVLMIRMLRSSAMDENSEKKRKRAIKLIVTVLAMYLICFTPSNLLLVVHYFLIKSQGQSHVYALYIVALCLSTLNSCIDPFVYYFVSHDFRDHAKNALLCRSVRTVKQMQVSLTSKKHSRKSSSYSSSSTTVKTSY
Experimental: In order to determine whether punicalagin inhibits cytokine secretion by PAR2 receptor activity, human conjunctival epithelial cells, which were primary cultured and differentiated in a transwell, were treated with 100 μM PAR2-AP or 10 μM punicalagin for 24 hours, and then, by collecting the culture medium from the apical membrane, cytokine concentrations were measured by the enzyme-linked immunosorbent assay.

PAR2 [2] = biological target: T1, PAR2; assay: CaCC-dependent Cl- secretion (short-circuit current, Ussing chamber) by PAR2-AP in primary cultured human conjunctival epithelial cells; type: cell-based; set-up: endogenous in cells; settings: 10 μM for 10 minutes, 100 μM PAR2-AP, after 100 μM amiloride
Experimental: After primary cultured human conjunctival epithelial cells expressing PAR2 were cultured in a transwell, followed by removal of a culture medium on the side of an apical membrane, retinoic acid was added to the side of a basolateral membrane to differentiate for about 2 weeks (Invest Ophthalmol Vis Sci. 2013 Oct. 29; 54(10): 7143-52), and then, short-circuit currents were measured using a Ussing chamber. […] Next, by treating 10 μM forskolin, which is a an activator of the cystic fibrosis transmembrane conductance regulator (CFTR), the effect of promoting Cl^− secretion by the cystic fibrosis transmembrane conductance regulator (CFTR) channel was measured, and then, by treating 10 μM CFTRihn-172(5-[(4-carboxyphenyl)methylene]-2-thioxo-3-[(3-trifluoromethyl)phenyl-4-thiazolidinone]) (J Clin Invest. 2002 December; 110(11): 1651-8), which is a CFTR inhibitor, it was confirmed that Cl^− secretion by the CFTR channel was inhibited (panel A of FIG. 3).
Meanwhile, Cl^− secretion by PAR1-AP was not measured as a result of the above experiment, and in order to confirm the inhibitory effect of Cl^− secretion during punicalagin treatment. […]

[3] = test system: ICR mice with atopic dermatitis induced by DNFB; assay: Atopic dermatitis and pruritus induced by DNFB in mice; type: in vivo; settings: 3 mg/kg intraperitoneally daily
Experimental: In 12-week-old ICR mice, it was confirmed whether punicalagin inhibits pruritus caused by atopic dermatitis induced by 1-fluoro-2,4-dinitrobenzene (DNFB).
Specifically, as shown in panel A of FIG. 19, punicalagin (PG) was dissolved in physiological saline and intraperitoneally injected at 3 mg/kg daily for 17 days, and atopic dermatitis and pruritus were induced by treating 0.15% DNFB dissolved in acetone with a cotton swab on the back of the mice on the 10th, 13th, 20th, and 27th days.

[4] = test system: NZB/W F1 mice with lupus nephritis; assay: Lupus nephritis mouse model (NZB/W F1); type: in vivo
Experimental: With NZB/W F1 mice that were purchased from Central Lab. Animal Inc., the effect of punicalagin on symptoms of lupus nephritis was confirmed.
As control groups, there were two groups including a nephritis-induced group that was injected only with physiological saline and a nephritis-induced group that was injected with 7 mg/kg methylprednisolone (MPL), which is a standard therapeutic agent for lupus nephritis, and proteinuria was measured twice a week (panel A of FIG. 9).
Next, the protective effect of punicalagin on renal structural damage against lupus nephritis was histologically evaluated. To this end, kidneys were extracted and PAS stained in 30-week-old mice, and the degree of damage to glomeruli, ducts, and blood vessels was histologically quantified. In addition, when lupus nephritis was induced, the expressions of IgG and C3, which are autoantibodies mostly expressed in kidney tissues, were fluorescence-stained and observed under a fluorescence microscope.
In order to determine the mechanism of the alleviating effect of punicalagin on lupus nephritis, the spleen was extracted from 30-week-old mice, the spleen weight and the number of splenocytes were measured, and changes in T cells in the spleen were analyzed by FACS.
After serum was isolated from 30-week-old mice, it was analyzed by the enzyme immunoassay to determine whether punicalagin inhibited or increased cytokines that were expressed by lupus nephritis.
In order to determine the alleviating effect of punicalagin on lupus nephritis, serum was isolated from 30-week-old mice, and the expression of B cell autoantibodies was analyzed by the enzyme immunoassay.
In order to determine the alleviation mechanism of punicalagin against lupus nephritis, the expressions of VCAM-1 and ICAM-1 were analyzed by immunohistochemical staining in renal tissues of 30-week-old mice.

carbonic anhydrase = settings: cited from earlier work
[5] = 3 mg/kg, 1 mg/kg, and 0.3 mg/kg
[6] = 3 mg/kg, 1 mg/kg, and 0.3 mg/kg, similar to methylprednisolone

O=CC1OC(=O)c2cc(O)c(O)c(O)c2-c2c(cc(O)c(O)c2O)C(=O)OC1C1OC(=O)c2cc(O)c(O)c(O)c2-c2c(O)c(O)c3oc(=O)c4c(c(O)c(O)c5oc(=O)c2c3c54)-c2c(cc(O)c(O)c2O)C(=O)OCC1O (stereo not shown) [punicalagin, 1,2,3,11,12,13-hexahydroxy-5,10-dioxo-8-[3,4,5,11,17,18,19,22,23,34,35-undecahydroxy-8,14,26,31-tetraoxo-9,13,25,32-tetraoxaheptacyclo[25.8.0.0^2,7.0^15,20.0^21,30.0^24,29.0^28,33]pentatnaconta-1(35),2,4,6,15,17,19,21,23,27,29,33-dodecaen-10-yl]-5,7,8,10-tetrahydrodibenzo[f,h][1,4]dioxecin-7-carbaldehyde]
inhibition of GMCSF induced by PAR2-AP (PAR2 [1]): 66.8%
inhibition of interleukin-6 (IL-6) induced by PAR2-AP (PAR2 [1]): 59.5%
inhibition of interleukin-8 (IL-8) induced by PAR2-AP (PAR2 [1]): 61.6%
increase in CaCC-dependent Cl- secretion on PAR2 activation (PAR2 [2]): inhibited
suppression of the number of scratches caused by DNFB, measured for 30 minutes [3]: about 60%
atopic dermatitis (skin inflammation) ([3]; 0.15% DNFB): significantly reduced
kidney weight ([4]; 1 mg/kg): reduced
serum expressions of anti-dsDNA, IgG1, IgG2a, IgG2b, and IgG3 ([4]; 1 mg/kg and 10 mg/kg): decreased
expression of regulatory T cells (Treg) ([4]; 3 mg/kg): significantly increased
number of CD4 T cells in the spleen and expressions of TH1, TH2, and TH17 T cells (FACS) ([4]; 3 mg/kg and 1 mg/kg): significantly reduced
lower proteinuria compared to the nephritis-induced group ([4]; 3 mg/kg and 1 mg/kg, at the level of 7 mg/kg methylprednisolone): 60%
serum creatinine concentration ([4]; 3 mg/kg group): lowest
degree of damage to glomeruli, ducts, and blood vessels (PAS staining) ([4]; 3 mg/kg, 1 mg/kg, and 0.1 mg/kg, 30-week-old mice, similar to methylprednisolone): alleviated
IgG and C3 depositions in kidney tissue (fluorescence) [4, 5]: significantly reduced
expressions of VCAM-1 and ICAM-1 in kidney tissues (immunohistochemical staining) [4, 5]: significantly reduced
serum expressions of IL-10 and TGF-β1 [4, 5]: increased
total number of splenocytes [4, 5]: not increased
serum expressions of IFN-γ, IL-17A, and IL-6 [4, 6]: reduced
weight of the spleen [4, 6]: not increased
mortality from 23 weeks to 30 weeks ([4]; 3, 1 and 0.3 mg/kg intraperitoneally three times a week): none of the subjects died
serum creatinine concentration vs nephritis-induced group ([4]; punicalagin-treated groups (3, 1, 0.3 mg/kg)): lower
activity against carbonic anhydrase (carbonic anhydrase): inhibitory activity
